Measurements reported in patent publication US20190119282A1, “IMIDAZOPYRIDAZINES USEFUL AS INHIBITORS OF THE PAR-2 SIGNALING PATHWAY” (Vertex Pharmaceuticals Incorporated, priority 2013, published 2019).
Marks after values point to notes of the source that are not given here.

How the values were obtained:
[1] = target: T1, PAR2 (HT-29 cells, SLIGKV activation) (Homo sapiens, UniProt P55085); experiment: Ca FLIPR TETRA assay, ANTAGONIST mode, stimulation with 8 μM SLIGKV; type: cell-based; details: HT-29 cells, stimulation with 8 μM SLIGKV
T1 construct: host or cells: HT-29 cells
T1 sequence (P55085 26-397): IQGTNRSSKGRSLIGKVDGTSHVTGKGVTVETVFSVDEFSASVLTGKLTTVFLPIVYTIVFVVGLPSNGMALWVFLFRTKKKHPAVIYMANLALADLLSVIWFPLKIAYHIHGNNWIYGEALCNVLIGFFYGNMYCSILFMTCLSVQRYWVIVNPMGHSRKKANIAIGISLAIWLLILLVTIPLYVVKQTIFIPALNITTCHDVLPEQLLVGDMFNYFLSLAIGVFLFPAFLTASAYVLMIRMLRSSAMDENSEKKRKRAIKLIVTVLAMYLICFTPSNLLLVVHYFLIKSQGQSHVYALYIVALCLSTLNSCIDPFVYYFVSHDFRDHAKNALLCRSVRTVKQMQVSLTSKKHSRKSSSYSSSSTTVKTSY
In short: (§1)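 FLIPR Tetra Ca2+ read-out in HT-29 cells, calcium 5 dye. Compound preincubation 30 min r.t., with an initial read for agonist activity. Final activator levels: SLIGKV 8 μM, thrombin 1 U/mL, trypsin 3.1 U/mL, UTP 0.6 μM.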

[2] = target: T2, PAR2 (HT-29 cells, trypsin activation) (Homo sapiens, UniProt P55085); experiment: Ca FLIPR TETRA assay, ANTAGONIST mode, stimulation with 3.1 U/mL trypsin; type: cell-based; details: HT-29 cells, stimulation with 3.1 U/mL trypsin
T2 construct: host or cells: HT-29 cells
T2 sequence (P55085 26-397): T1 sequence (P55085 26-397)
In short: as §1

[3] = system: Thrombin-stimulated Ca2+ response in HT-29 cells; experiment: Ca FLIPR TETRA assay, ANTAGONIST mode, stimulation with 1 U/mL Thrombin; type: cell-based, human; details: Homo sapiens, HT-29 cells, stimulation with 1 U/mL Thrombin
In short: as §1

[4] = system: UTP-stimulated Ca2+ response in HT-29 cells; experiment: Ca FLIPR TETRA assay, ANTAGONIST mode, stimulation with 0.6 μM UTP; type: cell-based, human; details: Homo sapiens, HT-29 cells, stimulation with 0.6 μM UTP
In short: as §1

[5] = In vivo rat pharmacokinetics (intravenous and oral); details: plasma; for clearance: intravenous 0.5 to 1 mg/kg, read-out: Clp; for Vd: intravenous, read-out: Vss; for bioavailability: oral by gavage; for half-life: read-out: T ½ (converted)
Procedure: Example 61: Protocol for Testing PAR2 Compounds In Vivo Rat Pharmacokinetics Experiments
Compounds delivered by intravenous route were formulated using a solution formulation consisting of 5% N-methylpyrrolidone 10% Vitamin E-TPGS and 85% water (v/v/) or a solution formulation consisting of 25% N-methylpyrrolidone 35% polyethylene glycol 400 and 40% water (v/v/). Intravenous formulations were administered by a bolus injection (over approximately 10 seconds) using a hypodermic needle attaches to a syringe (tail vein). The dose volume was varied from 1 to 2 mL/kg and the dose was varied from 0.5 to 1 mg/kg. Compounds delivered orally were formulated as a solution formulation consisting of 5% N-methylpyrrolidone 10% Vitamin E-TPGS and 85% water (v/v/) or as fine suspension using a cellulose derivative suspending agent with or without the addition of a wetting agent/surfactant. Milling of large particles was performed as needed to reduce particle size using focused electroacoustic milling, homogenization or low energy media milling. A spray-dried solid dispersion was prepared for key compounds using 1:1 combination with cellulose derivatives. Test compounds were administered orally by gavage using a gavage plastic needle attached to a syringe. The dose volume was varied from 5 to 10 mL/kg and the dose was varied from 1 to 600 mg/kg.
Rats were bled by venipuncture (jugular vein) and the samples were collected into tubes containing K3EDTA. The tubes were placed on wet ice until processed. The samples were centrifuged for approximately 10 minutes (at approximately 4° C.) within approximately 30 minutes of collection to prepare plasma or diluted in citrate buffer (1:3) and stored frozen (approximately −30° C.). Thawed plasma or whole blood samples were extracted by protein precipitation using an organic solvent followed by centrifugation. The supernatants were separated by high-performance liquid chromatography coupled to mass spectrometry detection. A calibration curve was prepared using reference standard compounds spiked into either blank plasma or whole blood matrices and extracted similarly to unknown samples. Pharmacokinetic parameters were calculated using non-compartmental analysis.

[6] = system: carrageenan-induced paw edema; experiment: Rat carrageenan-induced paw edema model; type: in vivo, Sprague Dawley rats; details: given before carrageenan challenge
Procedure: Male Sprague Dawley rats and BALB/c mice were housed in groups in a temperature controlled room and were acclimatized in the animal facility for at least three days prior to use. Experiments were performed during the light phase of the cycle. Animals have food and water ad libitum.
Example 63: Rat Carrageenan-Induced Paw Edema Model
Peripheral inflammation was induced by intra-plantar administration of 100 ul of a 1% w/volume (in saline) carrageenan solution under isoflurane anesthesia. The degree of swelling was assessed using the plethysmometer at 2-3-4-5-6 h after carrageenan injection. Test compound or vehicle (0.5% MC/0.1% SDS) was systemically administered at the indicated doses in a volume of 5 mL/kg either I-3 hour before carrageenan challenge (Table 9) or 2 hours post carrageenan challenge (Table 10).
Data are expressed as the mean % effect. Statistical significance was assessed using t-test for comparison between naive and inflamed rats, and one-way ANOVA followed by post-hoc comparison test for overall drug effectiveness. A difference between groups is considered significant with a p value of <0.05. *, p<0.05; **, p<0.01; ***, p<0.001 vs. vehicle.

Row | IC50 ([1]; antagonist mode) [nM] | IC50 ([2]; antagonist mode) [nM] | IC50 ([3]; antagonist mode) [nM] | IC50 ([4]; antagonist mode) [nM] | clearance [5] [mL/min/kg] | Vd [5] [L/kg] | bioavailability [5] [%] | half-life [5] [h] | SMILES | % inhibition of carrageenan induced paw edema ([6]; dose 20 mg/kg) | other results
1 | 2.2 | 2 | > 1000 | > 1000 | 1.07 | 6.82 | 76 | 77.9 | CC(C)(C)c1cc(-c2ccc(C(F)(F)F)cc2)nn2cc(C(=O)N3CCNC(=O)C3(C)C)nc12 [Compound I-283, 4-[8-tert-butyl-6-[4-(trifluoromethyl)phenyl]imidazo[1,2-b]pyridazine-2-carbonyl]-3,3-dimethyl-piperazin-2-one] | 19* % | 
2 | 2.5 | 3.2 | > 1000 | > 1000 |  |  |  |  | Cc1cc(-c2cc(C(C)(C)C)c3nc(C(=O)N4CCN(c5cn[nH]c5)C(=O)C4(C)C)cn3n2)ccc1F [Compound I-417] | 32** % | 
3 | 0.1 | 0.2 | > 1000 | > 1000 | 3.2 | 4.2 | 67 | 18.1 | CC(C)(C)c1cc(-c2ccc(F)cc2)nn2cc(C(=O)N3CCN(C(=O)C4CC(O)(C(F)(F)F)C4)CC3(C)C)nc12 (centres unmarked) [Compound I-199] | 52*** % | % inhibition of carrageenan induced paw edema ([6]; dose 7.5 mg/kg): 14%
4 | 2.2 | 2.5 | > 1000 | > 1000 |  |  |  |  | CC(C)(C)c1cc(-c2ccc(C(F)(F)F)cc2)nn2cc(C(=O)N3CCN(c4cn[nH]c4)C(=O)C3(C)C)nc12 [Compound I-366] | 43** % | 
5 | 116 | 247 | > 1000 | > 1000 |  |  |  |  | Cc1n[nH]c(C(=O)N2CCN(C(=O)c3cn4nc(-c5ccc(F)cc5)cc(C(C)(C)C)c4n3)CC2)n1 [Compound I-525] |  | % inhibition of carrageenan induced paw edema ([6]; dose 50 mg/kg): 9%

More lines, now with the values behind:

Row | SMILES | IC50 ([1]; antagonist mode) [nM] | IC50 ([2]; antagonist mode) [nM] | IC50 ([3]; antagonist mode) [nM] | IC50 ([4]; antagonist mode) [nM] | clearance [5] [mL/min/kg] | Vd [5] [L/kg] | bioavailability [5] [%] | half-life [5] [h] | % inhibition of carrageenan induced paw edema ([6]; dose 20 mg/kg) | other results
6 | CC(C)c1cc(-c2ccc(F)cc2)nn2cc(C(=O)N3CCN(C(=O)C4(O)CCOCC4)CC3(C)C)nc12 [Compound I-27, [6-(4-fluorophenyl)-8-isopropyl-imidazo[1,2-b]pyridazin-2-yl]-[4-(4-hydroxytetrahydropyran-4-carbonyl)-2,2-dimethyl-piperazin-1-yl]methanone] |  |  |  |  |  |  |  |  | 33** % | IC50 [1]: 59 nM; IC50 [2]: 250 nM; IC50 [3]: 35000 nM; IC50 [4]: 42000 nM; % inhibition of carrageenan induced paw edema ([6]; dose 3 mg/kg): 16%; % inhibition of carrageenan induced paw edema ([6]; dose 6 mg/kg): 25* %; % inhibition of carrageenan induced paw edema ([6]; dose 10 mg/kg): 30%; % inhibition of carrageenan induced paw edema ([6]; dose 30 mg/kg): 31* %; % inhibition of carrageenan induced paw edema ([6]; dose 60 mg/kg): 30** %
7 | Cc1nc(C(=O)N2CCN(C(=O)c3cn4nc(-c5ccc(Cl)cc5)cc(C(C)(C)C)c4n3)C(C)(C)C2)n[nH]1 [Compound I-436, [8-tert-butyl-6-(4-chlorophenyl)imidazo[1,2-b]pyridazin-2-yl]-[2,2-dimethyl-4-(5-methyl-1H-1,2,4-triazole-3-carbonyl)piperazin-1-yl]methanone] | 0.3 | 0.4 | 11000 | 3600 | 4.21 | 2.05 | 77 | 7.5 |  | % inhibition of carrageenan induced paw edema ([6]; dose 1 mg/kg): −17* %; % inhibition of carrageenan induced paw edema ([6]; dose 30 mg/kg): 36** %
8 | C[C@@H]1C[C@H](c2cc(-c3ccc(F)cc3)nn3cc(C(=O)N4CCN(C(=O)[C@H]5C[C@](O)(C(F)(F)F)C5)CC4(C)C)nc23)C[C@H](C)O1 [Compound I-213] | 3.5 | 5.4 | > 1000 | > 1000 |  |  |  |  |  | % inhibition of carrageenan induced paw edema ([6]; dose 7 mg/kg): 36* %
9 | Cn1nnc(N2CCN(C(=O)c3cn4nc(-c5ccc(F)cc5)cc(C(C)(C)C)c4n3)C(C)(C)C2=O)n1 [Compound I-249] | 0.6 | 0.7 | > 1000 | > 1000 |  |  |  |  |  | % inhibition of carrageenan induced paw edema ([6]; dose 10 mg/kg): 49*** %; % inhibition of carrageenan induced paw edema ([6]; dose 30 mg/kg): 26* %
10 | CC(C)(C)c1cc(C2CCC(F)(F)CC2)nn2cc(C(=O)N3CCN(c4cn[nH]c4)C(=O)C3(C)C)nc12 [Compound I-429] | 2.4 | 3.3 | > 1000 | > 1000 |  |  |  |  | 43** % | 
11 | Cc1nnc(C(=O)N2CCN(C(=O)c3cn4nc(C5CCC(F)(F)CC5)cc(C(C)(C)C)c4n3)C(C)(C)C2)[nH]1 [Compound I-448, [8-tert-butyl-6-(4,4-difluorocyclohexyl)imidazo[1,2-b]pyridazin-2-yl]-[2,2-dimethyl-4-(5-methyl-4H-1,2,4-triazole-3-carbonyl)piperazin-1-yl]methanone] | 6.9 | 11.4 | 17500 | 14500 | 6.44 | 1.84 | 87 | 5.14 | 15% | 
12 | CC(C)(C)c1cc(-c2ccc(Cl)cc2)nn2cc(C(=O)N3CCN(C(=O)[C@H]4C[C@@](C)(O)C4)CC3(C)C)nc12 [Compound I-421] | 0.3 | 0.2 | > 1000 | > 1000 | 6.15 | 3.07 | 189 | 9.62 |  | % inhibition of carrageenan induced paw edema ([6]; dose 1 mg/kg): 11%; % inhibition of carrageenan induced paw edema ([6]; dose 10 mg/kg): −32** %
13 | Cc1cc(C(=O)N2CCN(C(=O)c3cn4nc(-c5ccc(F)cc5)cc(C(C)(C)C)c4n3)C(C)(C)C2)[nH]n1 [Compound I-291] | 0.2 | 0.3 | 750 | 670 |  |  |  |  |  | % inhibition of carrageenan induced paw edema ([6]; dose 5 mg/kg): 37** %
14 | Cc1nnc(C(=O)N2CCN(C(=O)c3cn4nc(-c5ccc(F)cc5)cc(C(C)(C)C)c4n3)C(C)(C)C2)o1 [Compound I-288] | 1.2 | 1.8 | 770 | > 1000 |  |  |  |  |  | % inhibition of carrageenan induced paw edema ([6]; dose 10 mg/kg): 48*** %
15 | CC(C)c1cc(-c2ccc(C(F)(F)F)cc2)nn2cc(C(=O)N3CCNC(=O)C3(C)C)nc12 [Compound I-241] | 1.7 | 2 | > 1000 | > 1000 |  |  |  |  |  | % inhibition of carrageenan induced paw edema ([6]; dose 7 mg/kg): 17** %
